Assay results published in PubChem BioAssay (NCI).
Several values for one entry are separate records, joined by “and”; a condition that tells them apart may be missing. Equal values may be shown once.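 Method: 48-hour compound exposure of cells in 96-well plates, five concentrations, linear interpolation of endpoints. GI50 is the concentration that inhibits growth by half. TGI: total growth inhibition.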

How the values were obtained:
Experiment in all cases: inhibition of tumour cell growth, NCI panel, 48 h
[1] = tested on: HOP-92 NSCLC
[2] = tested on: NCI-H522 lung
[3] = tested on: UACC-62 melanoma
[4] = tested on: BT-549 breast
[5] = tested on: SW-620 colon
[6] = tested on: M14 melanoma
[7] = tested on: IGROV1 ovarian
[8] = tested on: ACHN renal
[9] = tested on: OVCAR-4 ovarian
[10] = tested on: KM12 colon
[11] = tested on: OVCAR-3 ovarian
[12] = tested on: NCI-H226 lung
[13] = tested on: TK-10 renal
[14] = tested on: HCC-2998 colon

Row | SMILES | TGI [1] | TGI [2] | TGI [3] | TGI [4] | TGI [5] | TGI [6] | TGI [7] | TGI [8] | TGI [9] | TGI [10] | TGI [11] | TGI [12] | TGI [13] | TGI [14] | GI50 [2] | GI50 [5] | GI50 [1] | GI50 [10] | GI50 [6] | GI50 [4]
1 | CC(=O)NC(CCC(=O)C=[N+]=N)C(=O)O (stereo unspecified) | > 100 µM | > 100 µM | > 100 µM | > 100 µM | > 100 µM | > 100 µM | > 100 µM | > 100 µM | > 100 µM | > 100 µM | > 100 µM | > 100 µM | > 100 µM | > 100 µM |  |  |  |  |  | 
2 | CC1CCC2(C(=O)O)CCC3(C)C(=CCC4C5(C)CCC(O)C(C)(C)C5CCC43C)C2C1C (stereo unspecified) | 21.1 µM and 42.6 µM | 17.8 µM and 28.9 µM | 18.8 µM and 44 µM | 40.5 µM | 16.9 µM and > 100 µM | 4.28 µM | 26.9 µM and 33.2 µM |  | 24.2 µM and 31.9 µM | 21 µM and 20.9 µM | 18.4 µM and 26.8 µM | 18.7 µM and 37.7 µM | 43.9 µM | 21.8 µM and 23 µM | 6.98 µM and 14.4 µM | 5.07 µM and 46.9 µM |  |  |  | 
3 | CC1CC[C@@]2(OC1)OC1CC3C4CCC5C[C@@H](OC6OC(CO)C(OC7OC(CO)C(O)C(OC8OC(CO)C(O)C(OC9OC(CO)C(O)C(O)C9O)C8O)C7OC7OC(CO)C(O)C(O)C7O)C(O)C6O)[C@H](O)C[C@]5(C)C4CC[C@]3(C)C1[C@@H]2C (stereo partly specified) | > 80.5 µM |  | > 80.5 µM | > 80.5 µM | > 80.5 µM | > 80.5 µM |  | > 80.5 µM | > 80.5 µM | > 80.5 µM | > 80.5 µM | > 80.5 µM | > 80.5 µM | > 80.5 µM |  |  |  |  |  | 
4 | CNC(=O)SCC(N)C(=O)O (stereo unspecified) | > 100 µM | > 100 µM | > 100 µM |  | > 100 µM |  | > 100 µM |  | > 100 µM | > 100 µM | > 100 µM | > 100 µM |  | > 100 µM |  |  |  |  |  | 
5 | Cc1[nH]nc(N)c1C(N)=O |  | > 100 µM | > 100 µM |  | > 100 µM | > 100 µM | > 100 µM | > 100 µM | > 100 µM | > 100 µM |  |  | > 100 µM | > 100 µM |  |  |  |  |  | 
6 | CC(=O)OC/C=C\Cn1nc(Br)c(=O)[nH]c1=O | 27.9 µM | 16.7 µM |  | 22.2 µM | 32.3 µM | 30.9 µM | 29.4 µM | 23.4 µM |  | 30.1 µM | 22.5 µM | 30.1 µM | 38.2 µM | 31.7 µM |  |  |  |  |  | 
7 | COc1cc(OC)c(/C=C\c2cc(/C=C/c3c(OC)cc(OC)cc3OC)c3ccccc3[n+]2C)c(OC)c1 | 8.08 µM | 7.58 µM | 16.5 µM | > 24.7 µM | > 36.3 µM | 12.7 µM | 38.3 µM | 25.8 µM | 36.4 µM | 10.4 µM | 6.17 µM | 23.6 µM | > 49 µM | 14.5 µM |  |  |  |  |  | 
8 | O=C(N/N=C/c1cc(Cl)cc(Cl)c1[O-])c1ccccc1O.O=C(N/N=C/c1cc(Cl)cc(Cl)c1[O-])c1ccccc1O.[Zn+2] | 4.98 µM | 0.764 µM | 1.84 µM |  | 20.9 µM | 6.88 µM | 6.82 µM | 12.9 µM | 2.4 µM | 17.9 µM | 1.85 µM | 7.61 µM | 18.5 µM | 13.2 µM |  |  | 0.363 µM | 0.956 µM |  | 
9 | OC1CCOc2ccccc21 (stereo unspecified) |  | > 100 µM | > 100 µM |  | > 100 µM | > 100 µM | > 100 µM | > 100 µM | > 100 µM | > 100 µM | > 100 µM | > 100 µM | > 100 µM | > 100 µM |  |  |  |  |  | 
10 | CCC(=O)c1ccc2[nH]c3c(C)c4c(=O)cc(C)[nH]c4c(C)c3c2c1 | 82.3 µM | > 100 µM |  | > 100 µM | > 100 µM | > 100 µM | > 100 µM | > 100 µM | > 100 µM | > 100 µM |  | > 100 µM | > 100 µM | > 100 µM |  |  |  |  |  | 
11 | NC(=O)CCC(N=C(N)c1csc(C2OC(CO)C(O)C2O)n1)C(=O)O (stereo unspecified) |  | > 100 µM | > 100 µM |  | > 100 µM | > 100 µM | > 100 µM | > 100 µM | > 100 µM | > 100 µM |  |  | > 100 µM | > 100 µM |  |  |  |  |  | 
12 | COC1C=COC2(C)Oc3c(C)c(O)c4c(O)c(c(/C=N/N5CCN(N)CC5)c(O)c4c3C2=O)NC(=O)C(C)=CC=CC(C)C(O)C(C)C(O)C(C)C(OC(C)=O)C1C (stereo unspecified) | > 100 µM | 78.2 µM | > 100 µM |  | > 100 µM | > 100 µM | > 100 µM | > 100 µM | > 100 µM | > 100 µM |  | > 100 µM | > 100 µM | > 100 µM |  |  |  |  |  | 
13 | CCOC(=O)c1c(Cl)nc2ccccc2c1N=[N+]=[N-] | 59.5 µM | 31.4 µM |  | 30.7 µM | 35.1 µM | 34.1 µM | 46.9 µM | > 100 µM | 31.7 µM | 31.5 µM | 39.7 µM | > 100 µM | 99.8 µM | > 100 µM |  |  |  |  |  | 
14 | CCCC(=O)NC1CCc2cc(OC)c(OC)c(OC)c2-c2ccc(OC)c(=O)cc21 (stereo unspecified) |  |  | > 100 µM | > 100 µM | > 100 µM | > 100 µM | > 100 µM | > 100 µM |  |  | 0.211 µM |  | > 100 µM |  |  |  |  |  | > 100 µM | 
15 | C1=C(c2ccccc2)Nc2nnnn2C1c1ccccc1 (stereo unspecified) |  | 69.8 µM | > 100 µM |  | 55.9 µM | 79.8 µM | > 100 µM | 57.2 µM |  | 28.6 µM | > 100 µM | > 100 µM | 73.9 µM |  |  |  |  |  |  | 
16 | O=S(=O)(O)c1ccc(N=Nc2c(O)ccc3cc(Br)ccc23)cc1 | > 100 µM | > 100 µM | > 100 µM | > 100 µM | > 100 µM | > 100 µM | > 100 µM | > 100 µM | > 100 µM | > 100 µM | > 100 µM |  | > 100 µM |  |  |  |  |  |  | 
17 | S=C1CC(c2ccccc2)Sc2ccccc2N1 (stereo unspecified) |  | > 100 µM | > 100 µM | > 100 µM |  | > 100 µM | > 100 µM | > 100 µM | > 100 µM | > 100 µM | > 100 µM | > 100 µM | > 100 µM |  |  |  |  |  |  | 
18 | [O-][n+]1ccccc1S | > 100 µM | 5.14 µM | 29.6 µM | > 100 µM | 23.1 µM | > 100 µM | 4.09 µM | > 100 µM | 4.4 µM | 20.3 µM | 2.78 µM | > 100 µM | 4.71 µM | > 100 µM |  |  |  |  |  | 27.1 µM
19 | C/C=C/C1=CC(=O)C(O)C1O (stereo unspecified) | 66 µM | 15.5 µM | 88.6 µM |  | 99.3 µM |  | 141 µM |  | 111 µM | 39 µM | 67.7 µM | 62.5 µM |  | 82.5 µM |  |  |  |  |  | 
20 | CC(=O)NC(c1nc2cc(C)c(C)cc2[nH]1)c1nc2cc(C)c(C)cc2[nH]1 | 43.3 µM | 18 µM | > 100 µM | 61.6 µM | > 100 µM | > 100 µM | 58.9 µM | > 100 µM | 72.8 µM | 34.2 µM | 42.2 µM |  | 89.1 µM | 34.6 µM |  |  |  |  |  | 
